The text below walks through data of ChEMBL document CHEMBL5291721, “A preclinical secondary pharmacology resource illuminates target-adverse drug reaction associations of marketed drugs” (Nat Commun, 2023).

Where only a bound is given, the exact number is not on record here.

Test [1] addresses T1, Alpha-2B adrenergic receptor (Homo sapiens, UniProt P18089).
T1 sequence (P18089 whole entry): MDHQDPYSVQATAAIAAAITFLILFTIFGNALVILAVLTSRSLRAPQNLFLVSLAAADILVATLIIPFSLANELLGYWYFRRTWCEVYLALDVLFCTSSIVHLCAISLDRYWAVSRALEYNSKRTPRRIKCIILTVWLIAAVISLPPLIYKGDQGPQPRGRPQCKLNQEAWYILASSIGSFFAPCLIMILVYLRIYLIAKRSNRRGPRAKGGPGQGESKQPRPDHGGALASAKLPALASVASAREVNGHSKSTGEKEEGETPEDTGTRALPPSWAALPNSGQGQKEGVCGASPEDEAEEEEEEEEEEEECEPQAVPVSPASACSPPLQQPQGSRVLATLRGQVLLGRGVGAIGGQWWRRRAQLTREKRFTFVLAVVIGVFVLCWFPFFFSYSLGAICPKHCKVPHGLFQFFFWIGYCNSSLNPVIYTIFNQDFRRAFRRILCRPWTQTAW

The target in test [2] is Delta-type opioid receptor (Homo sapiens, UniProt P41143).
The target in test [3] is T2, Adenosine receptor A3 (Homo sapiens, UniProt P0DMS8).
T2 sequence (P0DMS8 whole entry): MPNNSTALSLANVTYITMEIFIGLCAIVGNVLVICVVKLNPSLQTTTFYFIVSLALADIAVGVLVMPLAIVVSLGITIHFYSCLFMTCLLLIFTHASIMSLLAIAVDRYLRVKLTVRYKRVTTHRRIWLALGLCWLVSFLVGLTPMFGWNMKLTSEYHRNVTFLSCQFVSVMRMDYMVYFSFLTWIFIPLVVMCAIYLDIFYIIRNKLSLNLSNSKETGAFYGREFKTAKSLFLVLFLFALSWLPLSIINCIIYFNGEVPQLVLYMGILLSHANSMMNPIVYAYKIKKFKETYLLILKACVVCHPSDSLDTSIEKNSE

Test [4] deals with Gamma-aminobutyric acid receptor subunit alpha-1 (Rattus norvegicus, UniProt P62813).
The target of test [5] is T3, Alpha-2C adrenergic receptor (Homo sapiens, UniProt P18825).
T3 sequence (P18825 whole entry): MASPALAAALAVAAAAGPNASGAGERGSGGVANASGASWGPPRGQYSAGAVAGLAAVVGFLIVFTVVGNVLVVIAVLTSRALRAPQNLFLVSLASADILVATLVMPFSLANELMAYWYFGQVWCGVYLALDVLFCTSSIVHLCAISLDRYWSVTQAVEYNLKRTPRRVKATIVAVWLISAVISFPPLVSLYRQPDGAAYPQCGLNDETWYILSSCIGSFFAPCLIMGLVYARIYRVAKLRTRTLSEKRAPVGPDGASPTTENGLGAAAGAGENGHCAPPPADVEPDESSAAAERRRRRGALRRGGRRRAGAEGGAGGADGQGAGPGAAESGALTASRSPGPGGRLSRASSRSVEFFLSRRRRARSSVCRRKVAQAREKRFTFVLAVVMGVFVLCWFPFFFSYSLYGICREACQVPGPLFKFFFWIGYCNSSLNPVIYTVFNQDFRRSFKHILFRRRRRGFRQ
It counts as functional.

For test [6], the target named is T4, Muscarinic acetylcholine receptor M2 (Homo sapiens, UniProt P08172).
T4 sequence (P08172 whole entry): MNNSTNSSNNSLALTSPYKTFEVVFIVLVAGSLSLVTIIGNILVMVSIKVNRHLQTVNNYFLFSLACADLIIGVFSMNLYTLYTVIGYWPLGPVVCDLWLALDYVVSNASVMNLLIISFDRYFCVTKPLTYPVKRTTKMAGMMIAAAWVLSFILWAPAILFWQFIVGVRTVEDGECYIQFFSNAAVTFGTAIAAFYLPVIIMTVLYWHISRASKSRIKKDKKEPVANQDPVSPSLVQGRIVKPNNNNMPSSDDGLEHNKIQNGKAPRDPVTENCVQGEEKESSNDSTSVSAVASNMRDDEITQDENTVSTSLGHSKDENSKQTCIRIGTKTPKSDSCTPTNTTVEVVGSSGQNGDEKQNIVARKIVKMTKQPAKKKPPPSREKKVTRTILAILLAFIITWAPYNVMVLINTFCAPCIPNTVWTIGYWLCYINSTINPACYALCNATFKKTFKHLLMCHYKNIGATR
It counts as functional, cell-based.

Test [7] deals with T4, Muscarinic acetylcholine receptor M2. It counts as functional, cell-based. This is another data set of the same source.
In test [8] the target is T5, Alpha-1A adrenergic receptor (Homo sapiens, UniProt P35348).
T5 sequence (P35348 whole entry): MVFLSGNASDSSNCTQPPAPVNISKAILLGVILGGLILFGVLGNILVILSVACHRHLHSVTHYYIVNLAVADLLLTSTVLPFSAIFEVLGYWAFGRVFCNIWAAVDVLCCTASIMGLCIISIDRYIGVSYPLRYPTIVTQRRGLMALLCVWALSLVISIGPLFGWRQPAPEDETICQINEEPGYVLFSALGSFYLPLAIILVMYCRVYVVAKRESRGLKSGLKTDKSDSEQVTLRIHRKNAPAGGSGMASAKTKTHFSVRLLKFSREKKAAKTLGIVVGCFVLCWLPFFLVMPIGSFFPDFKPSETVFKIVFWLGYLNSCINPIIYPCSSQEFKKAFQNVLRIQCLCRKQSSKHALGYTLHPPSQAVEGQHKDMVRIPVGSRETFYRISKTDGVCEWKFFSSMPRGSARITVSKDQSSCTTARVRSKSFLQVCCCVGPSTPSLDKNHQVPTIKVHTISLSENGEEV
It counts as functional, cell-based.

In test [9] the target is Cannabinoid receptor 1 (Homo sapiens, UniProt P21554). It counts as functional, cell-based.
Note: assay procedure not described here.

Sequence of Gamma-aminobutyric acid receptor subunit alpha-1 (P62813 whole entry): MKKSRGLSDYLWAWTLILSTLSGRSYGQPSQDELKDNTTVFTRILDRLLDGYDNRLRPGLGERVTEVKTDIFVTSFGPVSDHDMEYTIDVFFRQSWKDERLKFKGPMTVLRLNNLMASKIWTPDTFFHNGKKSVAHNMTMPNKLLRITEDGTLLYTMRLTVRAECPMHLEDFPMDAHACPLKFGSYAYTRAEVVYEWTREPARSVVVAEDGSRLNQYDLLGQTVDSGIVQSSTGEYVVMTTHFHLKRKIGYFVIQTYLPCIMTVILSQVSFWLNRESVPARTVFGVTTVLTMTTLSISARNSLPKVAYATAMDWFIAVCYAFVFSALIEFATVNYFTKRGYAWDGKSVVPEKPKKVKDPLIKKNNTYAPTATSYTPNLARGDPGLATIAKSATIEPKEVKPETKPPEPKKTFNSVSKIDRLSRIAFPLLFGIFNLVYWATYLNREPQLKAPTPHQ
Sequence of Delta-type opioid receptor (P41143 whole entry): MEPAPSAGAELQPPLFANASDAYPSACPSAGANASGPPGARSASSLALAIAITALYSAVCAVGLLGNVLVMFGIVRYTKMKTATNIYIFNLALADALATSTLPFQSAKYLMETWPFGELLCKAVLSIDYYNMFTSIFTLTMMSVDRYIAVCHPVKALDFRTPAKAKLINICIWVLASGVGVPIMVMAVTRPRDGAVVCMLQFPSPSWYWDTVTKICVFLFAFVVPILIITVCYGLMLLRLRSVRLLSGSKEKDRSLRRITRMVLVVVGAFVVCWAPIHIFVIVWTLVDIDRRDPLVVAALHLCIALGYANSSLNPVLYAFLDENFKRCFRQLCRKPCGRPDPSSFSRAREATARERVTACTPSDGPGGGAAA
Sequence of Cannabinoid receptor 1 (P21554 whole entry): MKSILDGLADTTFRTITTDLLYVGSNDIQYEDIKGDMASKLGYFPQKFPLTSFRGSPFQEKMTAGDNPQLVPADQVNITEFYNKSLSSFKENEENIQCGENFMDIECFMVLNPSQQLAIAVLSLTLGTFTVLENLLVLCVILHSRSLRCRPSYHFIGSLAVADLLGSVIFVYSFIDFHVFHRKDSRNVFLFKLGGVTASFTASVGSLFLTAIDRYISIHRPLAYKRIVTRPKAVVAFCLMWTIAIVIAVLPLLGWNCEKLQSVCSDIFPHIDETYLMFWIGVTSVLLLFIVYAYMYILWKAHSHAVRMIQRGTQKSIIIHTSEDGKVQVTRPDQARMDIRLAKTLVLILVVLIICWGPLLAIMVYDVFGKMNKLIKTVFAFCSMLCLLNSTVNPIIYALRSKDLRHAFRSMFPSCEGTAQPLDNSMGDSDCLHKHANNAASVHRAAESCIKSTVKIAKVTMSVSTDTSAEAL

The AC50 is the concentration giving half of the maximal activity seen. With `CC(=O)N[C@H]1[C@H]([C@H](O)[C@H](O)CO)OC(C(=O)O)=C[C@@H]1N=C(N)N` [ZANAMIVIR], the concentration at half-maximal activity (AC50) is > 30 µM in test [1]; > 30 µM in [2]; > 30 µM in test [3]; > 10 µM in [4]; > 30 µM in [5]; > 10 µM in [6]. In test [7], the AC50 is > 10 µM.

In the case of `NS(=O)(=O)c1cc2c(cc1Cl)NC(CC1CCCC1)NS2(=O)=O` (stereo unspecified) [CYCLOPENTHIAZIDE], the AC50 was 17 µM in [1]; > 30 µM in test [8]; > 30 µM in [2]; > 30 µM in test [4]; > 30 µM in test [5]; > 30 µM in [9].

As to `O=P(O)(O)C(O)(Cc1cccnc1)P(=O)(O)O` [RISEDRONIC ACID], the AC50 in [8], in test [2], in [3], in test [4], in test [5] and in [6] was > 30 µM in each case. Further, the half-maximal activity concentration (AC50) in [9] and in test [7] was > 30 µM in each case.

Regarding `CN(C)CCCN1c2ccccc2Sc2ccccc21` [PROMAZINE], the concentration at half-maximal activity (AC50) in test [8] was > 30 µM; in [2], > 10 µM; in test [3] it was > 30 µM; in test [4], > 10 µM; in [5], 0.82 µM; in test [6], > 10 µM. Further, the concentration at half-maximal activity (AC50) in test [9] was > 30 µM; in test [7], > 10 µM.

Consider `O=C1CCC(N2C(=O)c3ccccc3C2=O)C(=O)N1` (stereo unspecified) [THALIDOMIDE], for which the AC50 in test [8] is > 30 µM; in test [2] it was > 30 µM; in test [3], > 30 µM; in test [4] it was > 10 µM; in test [5] it was > 10 µM; in test [6] it was > 10 µM. Besides, the AC50 in test [9] is > 30 µM; in test [7], > 10 µM.

On to `CN(C)[C@@H]1C(O)=C(C(N)=O)C(=O)[C@@]2(O)C(O)=C3C(=O)c4c(O)ccc(Cl)c4[C@@H](O)[C@H]3C[C@@H]12` [DEMECLOCYCLINE], for which the AC50 in test [1] is > 10 µM; in test [2] it was > 30 µM; in test [3], > 10 µM; in [4], > 10 µM; in test [5] it was > 10 µM; in test [6] it was > 10 µM. Moreover, in test [7], the concentration at half-maximal activity (AC50) was > 10 µM.

As to `NS(=O)(=O)c1cc(Cl)c(Cl)c(S(N)(=O)=O)c1` [DICHLORPHENAMIDE], the AC50 in test [1] is > 10 µM; in test [8], > 30 µM; in test [2], > 30 µM; in test [3] it was > 10 µM; in test [4], > 10 µM; in test [5], > 10 µM. In addition, the AC50 in test [6] and in test [7] was > 10 µM throughout.

With `CC(=O)O[C@]1(C(C)=O)CC[C@H]2[C@@H]3C[C@H](C)C4=CC(=O)CC[C@]4(C)[C@H]3CC[C@@]21C` [MEDROXYPROGESTERONE ACETATE], the concentration at half-maximal activity (AC50) in [3] is > 30 µM.

On to `N/N=c1/cc2c(n[nH]1)CCN(C(=O)c1ccccc1)C2` [ENDRALAZINE], for which the half-maximal activity concentration (AC50) in [1], in test [8], in [2], in [4], in [5] and in [9] was > 30 µM each time.

Take `CO/N=C(\C(=O)N[C@@H]1C(=O)N2C(C(=O)OCOC(=O)C(C)(C)C)=C(C)CS[C@H]12)c1csc(N)n1`: the AC50 in test [1], in test [8], in [2], in test [4], in [5] and in test [9] was > 30 µM in each case.

Regarding `C[N+](C)(C)CCOC(N)=O` [CARBAMOYLCHOLINE], the AC50 is > 30 µM in test [8]; > 30 µM in test [2]; > 10 µM in [3]; > 10 µM in test [4]; > 10 µM in [5]; > 30 µM in test [9].
